In US20080214623A1, “N-(2,2-Dimethylpropyl)-6- -3-Pyridinecarboxamide” (priority 2005, published 2008):

How the values were obtained:
[1] = target: T1, Recombinant human p38α (Homo sapiens, UniProt Q16539); test: Fluorescence anisotropy kinase binding assay; details: 12 nM p38α, 5 nM fluorescent ligand
T1 construct: GST; made in house
Procedure: Assay 1: Fluorescence Anisotropy Kinase Binding Assay
The concentration of kinase enzyme should preferably be 2×Kf. The concentration of fluorescent ligand required will depend on the instrumentation used, and the fluorescent and physicochemical properties. The concentration used must be lower than the concentration of kinase enzyme, and preferably less than half the kinase enzyme concentration.
Recombinant human p38α was expressed as a GST-tagged protein. To activate this protein, 3.5 μM unactivated p38α was incubated in 50 mM Tris-HCl pH 7.5, 0.1 mM EGTA, 0.1% 2-mercaptoethanol, 0.1 mM sodium vanadate, 10 mM MgAc, 0.1 mM ATP with 200 nM MBP-MKK6 DD at 30 degrees for 30 mins. Following activation p38α was re-purified and the activity assessed using a standard filter-binding assay.
All components are dissolved in buffer of composition 62.5 mM HEPES, pH 7.5, 1.25 mM CHAPS, 1 mM DTT, 12.5 mM MgCl2 with final concentrations of 12 nM p38α and 5 nM fluorescent ligand. 30 μl of this reaction mixture is added to wells containing 1 μl of various concentrations of test compound (0.28 nM-16.6 μM final) or DMSO vehicle (3% final) in NUNC 384 well black microtitre plate and equilibrated for 30-60 mins at room temperature. Fluorescence anisotropy is read in Molecular Devices Acquest (excitation 485 nm/emission 535 nm).
Definitions: Ki=dissociation constant for inhibitor binding […]

[2] = test system: TNFα production in LPS-stimulated leukocytes (human whole blood); test: TNFα production in human whole blood (LPS-stimulated); format: cell-based; details: Leukocyte, 1 hr preincubation, LPS 50 ng/ml, 20 hours
Description: Assay 2: TNFα Production in Human Whole Blood
p38 Mitogen-activated protein (MAP) kinase (p38) regulates the biosynthesis of pro-inflammatory cytokines such as TNFα. The potency as an inhibitor of cytokine production can thus be assessed by measuring the effects on TNFα production in LPS-stimulated leukocytes. Carrying the assay out on whole blood rather than isolated leukocytes gives a measure of whole cell potency of the compound in the presence of plasma protein and cells, particularly red blood cells that in vivo are likely to lower circulating free drug concentrations. […] The concentrations of TNF in the original whole blood assay supernatants can then be determined from a standard curve generated using authentic human TNFα.
Heparinised blood drawn from normal volunteers was dispensed (100 μl) into microtitre plate wells containing 0.5 or 1.0 μl of an appropriately diluted compound solution. […] Plasma TNFα content was determined by electrochemiluminescence assay using the IGEN technology. […]
TNF assay plates (MSD: cat L41IB-1) were blocked overnight with 20 μl human serum cytokine diluent (MSD). […] 150 μl 2× read buffer T (MSD Cat R92TC-1) was added to the whole blood plates and 90 μl 2.5× read buffer P (MSD Cat R92PC-1) to the PBMC plates and all plates read in the MSD Sector Imager 6000 electrochemiluminescence reader.

T1 sequence (Q16539 whole entry): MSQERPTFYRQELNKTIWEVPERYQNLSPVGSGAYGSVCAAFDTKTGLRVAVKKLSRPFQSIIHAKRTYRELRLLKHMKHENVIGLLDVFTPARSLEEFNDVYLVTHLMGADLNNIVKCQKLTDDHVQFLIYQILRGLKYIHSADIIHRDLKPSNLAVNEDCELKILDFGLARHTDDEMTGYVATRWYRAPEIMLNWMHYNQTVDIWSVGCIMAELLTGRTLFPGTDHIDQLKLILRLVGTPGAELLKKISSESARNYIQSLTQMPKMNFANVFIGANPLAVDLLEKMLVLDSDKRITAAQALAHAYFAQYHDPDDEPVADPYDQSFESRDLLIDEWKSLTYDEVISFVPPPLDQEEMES

Cc1c(F)cc(C(=O)Nc2ccon2)cc1-c1ccc(C(=O)NCC(C)(C)C)cn1 [Example 1]
IC50 [1]: < 0.05 µM
IC50 [2]: < 0.05 µM
